Experimental data from paper PMC7946228, “Discovery of novel candidates for anti-liposarcoma therapies by medium-scale high-throughput drug screening” (PLoS ONE, 2021).
Numbered stars: 1 amine (or outer) side, 2 acyl side, 3 side chain; on linkers, the order of the positions; unused ones are H or OH. Bridge positions count the residues as written; N and C are the ends. Square brackets hold non-standard residues; d marks the D form. Peptide text beside a SMILES is read from it. I, II: the chains in the order shown. Actinocin(9to1) = Cc1c2oc3c(C)ccc(C(=O)[*:1])c3nc-2c(C(=O)[*:2])c(N)c1=O; NMeV = CN[C@H](C(=O)O)C(C)C; Sar = CNCC(=O)O

test system: 13 liposarcoma cell lines; assay: High-throughput drug screen, ATP viability 72h; format: cell-based, human; settings: five concentrations 1 nM to 10 μM, combined viability (AUC)
Protocol: 349 compounds from anti-cancer Selleck Chemical library were pre-aliquoted at five concentrations, increasing in 10-fold steps from 1 nM to 10 μM, in 384-well plates using an Echo Liquid Handler. Each plate also contained positive (benzethonium chloride, BzCl) and negative (DMSO only) controls. Additional drugs were added manually to the same plates at the same concentration range. Cells were seeded directly into the plates containing the drugs. After 72h viability was assessed through levels of ATP, with Cell Titer Glow assay (Promega, Wisconsin, United States) and luminescence quantified using a […]. Data from drug screens were analyzed with R version 3.4.0 (R_Core_Team, 2017) normalized to median positive (BzCl) and median negative (DMSO) controls using formula: (drug-BzCl)/(DMSO–BzCl), with total viability calculated as the area under the curve over all five drug concentrations, adjusted using qualitatively constrained quantile smoothing splines, R package ‘cobs’ version 1.3–3 [22]. The raw values of positive (BzCl) and median negative (DMSO) controls on each assay plate were aggregated and used to calculate z’-factors, as a measure of assay performance and data quality, with a z’-factor > 0.5 representing acceptable data. For two cases where the z’-factor was below 0.5, strictly standardized mean difference (SSMD) was additionally calculated, giving the population value (β) of SSMD -4 and -5, respectively, indicating good quality. Data visualization was done in R using ‘ComplexHeatmaps’ package version 1.20.0 [24]. The same assay was also used when assessing viability of non-tumor cells and tumor explants.
Thirteen liposarcoma cell lines representing dedifferentiated, well-differentiated, pleomorphic and unspecified subtype liposarcomas were grown in 384-well format in the presence one of the 353 compounds, each at five 10-fold increasing concentrations (from 1 nM to 10 μM) for 72h, after which their viability was scored by measuring ATP levels. The viability was normalized to positive and negative controls and was calculated as sum of viabilities obtained with all the five used concentrations. That means if, e.g., the compound was killing cells at all the tested concentrations, the viability value would be 0, and if the compound was not killing cells at any tested concentrations, the value would be […]. If the compound was reducing the viability to 50% at 100 nM, and to 0% at 1 and 10 μM, the total viability would be calculated as 2 (see scheme on the top of Fig 1A). Within the tested concentration range, the majority of the drugs had very little effect on viability regardless of the target or pathway (Figs 1A and S1). The drug screen included 28 chemotherapeutic drugs currently in clinical use in Norway for the treatment of sarcoma.

Row | Structure (SMILES) | effect on viability in the drug screen
1 | CC(C)C[C@H](NC(=O)[C@H](Cc1ccccc1)NC(=O)c1cnccn1)B(O)O [Bortezomib] | top candidates from the screen
2 | Cc1c2oc3c(C)ccc(C(=O)N[C@@H]4C(=O)N[C@H](C(C)C)C(=O)N5CCC[C@H]5C(=O)N(C)CC(=O)N(C)[C@@H](C(C)C)C(=O)O[C@@H]4C)c3nc-2c(C(=O)N[C@@H]2C(=O)N[C@H](C(C)C)C(=O)N3CCC[C@H]3C(=O)N(C)CC(=O)N(C)[C@@H](C(C)C)C(=O)O[C@@H]2C)c(N)c1=O [actinomycin D] (I: T[dV]P[Sar][NMeV] / II: T[dV]P[Sar][NMeV]; ester I:1-I:C, II:1-II:C; linker I:N-II:N via Actinocin(9to1)) | significant impact on viability
3 | CC(=O)O[C@@]12CO[C@@H]1C[C@H](O)[C@@]1(C)C(=O)[C@H](O)C3=C(C)[C@@H](OC(=O)[C@H](O)[C@@H](NC(=O)OC(C)(C)C)c4ccccc4)C[C@@](O)([C@@H](OC(=O)c4ccccc4)[C@H]21)C3(C)C [docetaxel] | significant impact on viability
4 | Nc1ccn([C@@H]2O[C@H](CO)[C@@H](O)C2(F)F)c(=O)n1 [gemcitabine] | significant impact on viability
5 | Cc1ccc(C(=O)N(CCCN)[C@@H](c2nc3cc(Cl)ccc3c(=O)n2Cc2ccccc2)C(C)C)cc1 [ispinesib] | top candidates from the screen
6 | CC(=O)O[C@H]1C(=O)[C@@]2(C)[C@H]([C@H](OC(=O)c3ccccc3)[C@]3(O)C[C@H](OC(=O)[C@H](O)[C@@H](NC(=O)c4ccccc4)c4ccccc4)C(C)=C1C3(C)C)[C@]1(OC(C)=O)CO[C@@H]1C[C@@H]2O [paclitaxel] | significant impact on viability
7 | CC[C@]1(O)C[C@H]2CN(CCc3c([nH]c4ccccc34)[C@@](C(=O)OC)(c3cc4c(cc3OC)N(C=O)[C@H]3[C@@](O)(C(=O)OC)[C@H](OC(C)=O)[C@]5(CC)C=CCN6CC[C@]43[C@@H]65)C2)C1 [vincristine] | significant impact on viability
